Measured values published in patent US12129233B2, “Water-soluble salts of cannabinoids, preparation and uses thereof” (priority 2021, dated 2024).
Where a name gives a salt, the structure may show the parent alone.

Assay: physchem
Details: water

Question: Which Solubility does the source give for `CCCCCc1cc(O)c(C/C=C(\C)CCC=C(C)C)c(O)c1` [drawing 35/drawing 36 1:1, 1-Benzylpyridinium cannabigerol salt (1:1)] here?
Answer: 1 mg/mL

Same assay, conditions: water, Solubility

Question: For `CCCCCc1cc2c(c(O)c1C(=O)O)C1C=C(C)CCC1C(C)(C)O2` (centres unmarked) [drawing 32/drawing 34 1:2, Meglumine Salt with Tetrahydrocannabinolic Acid (2:1)], which Solubility is on record?
Answer: 20 mg/mL

Question: For `CCCCCc1cc(O)c2c(c1)OC(C)(C)C1CCC(C)=CC21` (centres unmarked) [drawing 25/drawing 28 1:1, Meglumine Salt with THC (1:1)], which Solubility is on record?
Answer: 9 mg/mL

Same assay, conditions: water, Solubility, in water; synthesized salts (and cannabinol parent)

Question: For `C=C(C)C1CCC(C)=CC1c1c(O)cc(CCCCC)c(C(=O)O)c1O` (centres unmarked) [drawing 30/drawing 31 1:3, Choline Salt with Cannabidiolic Acid (3:1)], which Solubility is on record?
Answer: 24 mg/mL

Question: Which Solubility does the source give for `CCCCCc1cc2c(c(O)c1C(=O)O)C1C=C(C)CCC1C(C)(C)O2` (centres unmarked) [drawing 32/drawing 33 1:2, Choline Salt with Tetrahydrocannabinolic Acid (2:1)] here?
Answer: 20 mg/mL

Assay: not given
Details: in water; synthesized salts (and cannabinol parent)

Question: With “Procaine Salt with CBD (2:1) [drawing 17/drawing 22 1:2]” as the compound, how does the Solubility read?
Answer: 6 mg/mL

Question: With `CCCCCc1cc(O)c2c(c1)OC(C)(C)C1CCC(C)=CC21` (centres unmarked) [drawing 25/drawing 26 1:1, Choline Salt with THC (1:1)] as the compound, how does the Solubility read?
Answer: 3 mg/mL

Question: With `CCCCCc1cc(O)c2c(c1)OC(C)(C)C1CCC(C)=CC21` [drawing 25/drawing 27 1:1, L-Lysine Salt with THC (1:1)] as the compound, how does the Solubility read?
Answer: 2 mg/mL

Question: With `CCCCCc1cc(O)c2c(c1)OC(C)(C)c1ccc(C)cc1-2` [drawing 39/Et4N^+ 1:1, Tetraethylammonium Salt with Cannabinol (1:1)] as the compound, how does the Solubility read?
Answer: 0.2 mg/mL

Question: For `CCCCCc1cc(O)c2c(c1)OC(C)(C)c1ccc(C)cc1-2` [drawing 39, Cannabinol, reference compound], which Solubility is on record?
Answer: insoluble

Question: For “Procaine Salt with CBD (1:1) [drawing 17/drawing 22 1:1]”, which Solubility is on record?
Answer: 5 mg/mL

Question: For `CCCCCc1cc(O)c2c(c1)OC(C)(C)c1ccc(C)cc1-2` [drawing 39/drawing 41 1:1, Acetylcholine Salt with Cannabinol (1:1)], which Solubility is on record?
Answer: 1 mg/mL

Question: Which Solubility does the source give for `CCCCCc1cc(O)c2c(c1)OC(C)(C)C1CCC(C)=CC21` (centres unmarked) [drawing 25/drawing 29 1:1, Agmatine Salt with THC (1:1)] here?
Answer: 0.2 mg/mL

Question: For `CCCc1cc(O)c2c(c1)OC(C)(C)C1CCC(C)=CC21` (centres unmarked) [drawing 37/drawing 38 1:1, Tetrakis(2-hydroxyethyl)ammonium Salt with Δ^9-Tetrahydrocannabivarin (1:1)], which Solubility is on record?
Answer: 7 mg/mL

Question: For `CCCc1cc(O)c2c(c1)OC(C)(C)C1CCC(C)=CC21` (centres unmarked) [drawing 37/n^−Bu4N^+ 1:1, Tetrabutylammonium Salt with Δ^9-Tetrahydrocannabivarin (1:1)], which Solubility is on record?
Answer: 0.2 mg/mL

Assay: not given
Details: in water; parent cannabinoid without base, literature value (footnotes a-f); cited from earlier work

Question: With `C=C(C)[C@@H]1CCC(C)=C[C@H]1c1c(O)cc(CCCCC)cc1O` [Cannabidiol] as the compound, how does the Solubility read?
Answer: 0.0007^[a] mg/mL

Question: Which Solubility does the source give for `CCCc1cc(O)c2c(c1)OC(C)(C)C1CCC(C)=CC21` (centres unmarked) [drawing 37, Δ^9-Tetrahydrocannabivarin] here?
Answer: 0.009^[f] mg/mL

Question: With `CCCCCc1cc2c(c(O)c1C(=O)O)C1C=C(C)CCC1C(C)(C)O2` (centres unmarked) [drawing 32, Tetrahydrocannabinolic acid] as the compound, how does the Solubility read?
Answer: 0.048^[d] mg/mL

Question: With `C=C(C)[C@@H]1CCC(C)=C[C@H]1c1c(O)cc(CCCCC)c(C(=O)O)c1O` [Cannabidiolic acid] as the compound, how does the Solubility read?
Answer: 2.2^[c] mg/mL

Question: Which Solubility does the source give for `CCCCCc1cc(O)c2c(c1)OC(C)(C)C1CCC(C)=CC21` (centres unmarked) [drawing 25, Δ^9-tetrahydrocannabinol] here?
Answer: 0.0028^[b] mg/mL
